Measurements reported in patent US9499509B2, “Dihydrochalcone derivatives and their use as antibiotic agents” (UNIVERSITÉ DU QUÉBEC À CHICOUTIMI, priority 2012, dated 2016).
≈ marks a conversion by molar mass, not a printed value. Read-outs that look alike come from different tables or passages of the source.

How the values were obtained:
[1] = test system: S. aureus wild type strain (ATCC25923); assay: Antibiotic assay of extracts and fractions (resazurin, Example 6), S. aureus wild type; assay type: cell-based, Staphylococcus aureus; details: S. aureus WT
Source text: (§1) Antibiotic agents. Gentamicin sulfate was provided by Calbiochem.

S. aureus = assay: Antibiotic assay (resazurin, Example 1), S. aureus strains of Table 3; assay type: cell-based, Staphylococcus aureus; details: for IC50: read-out: IC50
Source text: (§2) Bacteria Strain. […] The MRSA were obtained as further described below.
(§3) Antibiotic agents. Cyprofloxacin and erythromycin were provided by Sigma-Aldrich. Gentamicin sulfate and vancomycin hydrochloride were provided by Calbiochem.

E. coli (ATCC25922) = assay: Antibiotic assay of extracts and fractions (resazurin, Example 6), E. coli; assay type: cell-based
Source text: as §1

Streptococcus agalactiae = assay: Antibiotic assay (resazurin, Example 1), Streptococcus agalactiae; assay type: cell-based; details: for IC50: read-out: IC50
Method: as §2, §3
(§4) Five additional strains were tested: Streptococcus pneumoniae, Streptococcus agalactiae, Streptococcus pyogenes, Enterococcus faecalis and Corynebacterium jeikeium.

Corynebacterium jeikeium = assay: Antibiotic assay (resazurin, Example 1), Corynebacterium jeikeium; assay type: cell-based; details: Coryne. jeikeium 14139
Method: as §2, §3, §4

S. epidermidis = assay: Antibiotic assay (resazurin, Example 1), S. epidermidis strains
MRSAs (1, 2 and 3) = assay: Antibiotic assay of extracts and fractions (resazurin, Example 6), MRSA 1, 2 and 3; assay type: cell-based, Staphylococcus aureus
Source text: as §1

Streptococcus pneumoniae = assay: Antibiotic assay (resazurin, Example 1), Streptococcus pneumoniae; assay type: cell-based; details: for IC50: read-out: IC50
Method: as §2, §3, §4

Streptococcus pyogenes = assay: Antibiotic assay (resazurin, Example 1), Streptococcus pyogenes; assay type: cell-based; details: for IC50: read-out: IC50
Method: as §2, §3, §4

Enterococcus faecalis = assay: Antibiotic assay (resazurin, Example 1), Enterococcus faecalis; assay type: cell-based; details: for IC50: read-out: IC50
Method: as §2, §3, §4

[2] = test system: S. aureus wild type strain (ATCC 25923); assay: Antibiotic assay (absorption 660 nm, Example 2), S. aureus wild type; assay type: cell-based, Staphylococcus aureus; details: for MIC: S. aureus WT (ATCC 25923); for S. aureus WT ATCC 25923 (toxicity on bacteria): Table 7, same values as MIC of Table 6
Method: (§5) Antibiotic agents. Gentamicin sulfate was provided by Calbiochem. Chloramphenicol was provided by Sigma-Aldrich.
(§6) Antibiotic assay. […] The bacteria strains were inoculated in nutrients broth. […] All bacteria were plated in nutrients broth at a concentration of 450 000 bacteria/m L.
(§7) Compounds IV to XXI were diluted in dimethylsulfoxide. […] The compounds were tested at 8 different concentrations.
(§8) Each well contained: 100 μL of bacteria, 100 μL of the compounds tested. The plates were incubated at 37° C. for 6 h. The absorption was read using a Varioskan flash multimode Reader™ (Thermo Scientific) at 660 nm.
(§9) MRSA. Ten (10) strains of MRSA obtained as described above were tested along with an S. aureus wild type (WT) strain (ATCC 25923).

WS-1 cell lines = assay: Cytotoxicity assay on WS-1 (Example 2); assay type: cell-based; design: unit not given here; details: Table 7; WS-1, 48 h
Method: Cytotoxicity assay. […] The WS-1 cell lines were provided by ATCC. […] The compounds tested were then added at 8 different concentrations. […] In Table 7, the therapeutic indexes of compounds IV to XXI are presented.

MRSA strains = assay: Antibiotic assay (absorption 660 nm, Example 2), MRSA strains; assay type: cell-based, Staphylococcus aureus
Method: as §5, §6, §7, §8, §9

Gentamicin sulfate [reference compound]
IC50 [1]: <5 ng/mL | MIC [1]: <5 ng/mL | Minimum Inhibitory Concentration (MIC) (S. aureus; S. aureus 14094): (0.04) μM | IC50 (S. aureus; S. aureus 14094): < 6 nM | Minimum Inhibitory Concentration (MIC) (S. aureus; S. aureus 14108): (0.05) μM | IC50 (S. aureus; S. aureus 14108): 16 ± 3 nM | Minimum Inhibitory Concentration (MIC) (S. aureus; S. aureus 14118): (0.02) μM | IC50 (S. aureus; S. aureus 14118): 8 ± 1 nM | Minimum Inhibitory Concentration (MIC) (S. aureus; S. aureus 14154): (0.04) μM | IC50 (S. aureus; S. aureus 14154): < 16 nM | IC50 (E. coli (ATCC25922)): 9 ± 1 ng/mL | MIC (E. coli (ATCC25922)): 19 ng/mL | Minimum Inhibitory Concentration (MIC) (Streptococcus agalactiae; Strep. agalactiae 14150): (>20) μM | IC50 (Streptococcus agalactiae; Strep. agalactiae 14150): > 20000 nM | Minimum Inhibitory Concentration (MIC) (Streptococcus agalactiae; Strep. agalactiae 14151): (>20) μM | IC50 (Streptococcus agalactiae; Strep. agalactiae 14151): > 20000 nM | Minimum Inhibitory Concentration (MIC) (Streptococcus agalactiae; Strep. agalactiae 14153): (>20) μM | IC50 (Streptococcus agalactiae; Strep. agalactiae 14153): > 20000 nM | Minimum Inhibitory Concentration (MIC) (Corynebacterium jeikeium): (9.1) μM | IC50 (Corynebacterium jeikeium; read-out: IC50): 920 ± 70 nM | IC50 (S. epidermidis; S. epidermidis 14069): < 6 nM | Minimum Inhibitory Concentration (MIC) (S. epidermidis; S. epidermidis 14069): (2.51) μM | IC50 (S. epidermidis; S. epidermidis 14085): < 6 nM | Minimum Inhibitory Concentration (MIC) (S. epidermidis; S. epidermidis 14085): (1.19) μM | IC50 (S. epidermidis; S. epidermidis 14093): < 6 nM | Minimum Inhibitory Concentration (MIC) (S. epidermidis; S. epidermidis 14093): (1.25) μM | IC50 (S. epidermidis; S. epidermidis 14134): 130 ± 10 nM | Minimum Inhibitory Concentration (MIC) (S. epidermidis; S. epidermidis 14134): (0.8) μM | IC50 (S. epidermidis; S. epidermidis 14143): 200 ± 30 nM | Minimum Inhibitory Concentration (MIC) (S. epidermidis; S. epidermidis 14143): (>2) μM | IC50 (MRSAs (1, 2 and 3); MRSA 1): <5 ng/mL | MIC (MRSAs (1, 2 and 3); MRSA 1): <5 ng/mL | IC50 (MRSAs (1, 2 and 3); MRSA 2): <5 ng/mL | MIC (MRSAs (1, 2 and 3); MRSA 2): <5 ng/mL | IC50 (MRSAs (1, 2 and 3); MRSA 3): 6 ± 0.4 ng/mL | MIC (MRSAs (1, 2 and 3); MRSA 3): 19 ng/mL | Minimum Inhibitory Concentration (MIC) (Streptococcus pneumoniae; Strep. pneumoniae 14070): (>20) μM | IC50 (Streptococcus pneumoniae; Strep. pneumoniae 14070): 4000 ± 2000 nM | Minimum Inhibitory Concentration (MIC) (Streptococcus pneumoniae; Strep. pneumoniae 14112): (>20) μM | IC50 (Streptococcus pneumoniae; Strep. pneumoniae 14112): > 20000 nM | Minimum Inhibitory Concentration (MIC) (Streptococcus pneumoniae; Strep. pneumoniae 14138): (>20) μM | IC50 (Streptococcus pneumoniae; Strep. pneumoniae 14138): > 20000 nM | Minimum Inhibitory Concentration (MIC) (Streptococcus pneumoniae; Strep. pneumoniae 14144): (>20) μM | IC50 (Streptococcus pneumoniae; Strep. pneumoniae 14144): > 20000 nM | Minimum Inhibitory Concentration (MIC) (Streptococcus pneumoniae; Strep. pneumoniae 14148): (>20) μM | IC50 (Streptococcus pneumoniae; Strep. pneumoniae 14148): > 20000 nM | Minimum Inhibitory Concentration (MIC) (Streptococcus pyogenes; Strep. pyogenes 14149): (>20) μM | IC50 (Streptococcus pyogenes; Strep. pyogenes 14149): > 20000 nM | Minimum Inhibitory Concentration (MIC) (Streptococcus pyogenes; Strep. pyogenes 14152): (>20) μM | IC50 (Streptococcus pyogenes; Strep. pyogenes 14152): > 20000 nM | Minimum Inhibitory Concentration (MIC) (Enterococcus faecalis; Ent. Faecalis 14078): (>20) μM | IC50 (Enterococcus faecalis; Ent. Faecalis 14078): 11000 ± 1000 nM | Minimum Inhibitory Concentration (MIC) (Enterococcus faecalis; Ent. Faecalis 14115): (>20) μM | IC50 (Enterococcus faecalis; Ent. Faecalis 14115): > 20000 nM

O=C(CCc1ccccc1)c1c(O)cc(O)c2c1OC(c1ccc(O)cc1)CC2 (racemic) [IV]
MIC [2]: 1.27 ± 0.06 µM (≈ 0.496 µg/mL) | S. aureus WT ATCC 25923 (toxicity on bacteria) [2]: 1.27 ± 0.06 | WS-1 (toxicity on normal cells, fibroblast) (WS-1 cell lines): 16 ± 2 | MIC (MRSA strains; MRSA 1): 0.84 ± 0.04 µM (≈ 0.328 µg/mL) | MIC (MRSA strains; MRSA 2): 1.50 ± 0.06 µM (≈ 0.586 µg/mL) | MIC (MRSA strains; MRSA 3): 1.02 ± 0.06 µM (≈ 0.398 µg/mL) | MIC (MRSA strains; MRSA 4): 2.6 ± 0.2 µM (≈ 1.02 µg/mL) | MIC (MRSA strains; MRSA 5): 0.95 ± 0.01 µM (≈ 0.371 µg/mL) | MIC (MRSA strains; MRSA 6): 2.11 ± 0.07 µM (≈ 0.824 µg/mL) | MIC (MRSA strains; MRSA 7): 1.22 ± 0.04 µM (≈ 0.476 µg/mL) | MIC (MRSA strains; MRSA 8): 1.35 ± 0.05 µM (≈ 0.527 µg/mL) | MIC (MRSA strains; MRSA 9): 1.32 ± 0.04 µM (≈ 0.515 µg/mL) | MIC (MRSA strains; MRSA 10): 1.23 ± 0.08 µM (≈ 0.48 µg/mL)

O=C(CCc1ccccc1)c1c(O)cc(O)c2c1OC(c1ccc(O)cc1)C(O)C2 (centres unmarked) [XVII]
MIC [2]: 13.0 ± 0.8 µM (≈ 5.28 µg/mL) | S. aureus WT ATCC 25923 (toxicity on bacteria) [2]: 13.0 ± 0.8 | WS-1 (toxicity on normal cells, fibroblast) (WS-1 cell lines): >50 | MIC (MRSA strains; MRSA 1): 13 ± 1 µM (≈ 5.28 µg/mL) | MIC (MRSA strains; MRSA 2): 12 ± 1 µM (≈ 4.88 µg/mL) | MIC (MRSA strains; MRSA 3): 16.7 ± 0.5 µM (≈ 6.79 µg/mL) | MIC (MRSA strains; MRSA 4): 15 ± 1 µM (≈ 6.1 µg/mL) | MIC (MRSA strains; MRSA 5): 5.1 ± 0.2 µM (≈ 2.07 µg/mL) | MIC (MRSA strains; MRSA 6): 6 ± 2 µM (≈ 2.44 µg/mL) | MIC (MRSA strains; MRSA 7): 8.2 ± 0.7 µM (≈ 3.33 µg/mL) | MIC (MRSA strains; MRSA 8): 10.2 ± 0.8 µM (≈ 4.15 µg/mL) | MIC (MRSA strains; MRSA 9): 17 ± 1 µM (≈ 6.91 µg/mL) | MIC (MRSA strains; MRSA 10): 17 ± 1 µM (≈ 6.91 µg/mL)
